From PMC8248988, “A signal capture and proofreading mechanism for the KDEL-receptor explains selectivity and dynamic range in ER retrieval” (eLife, 2021)

Assays:
human KDELR1 = molecular target: T1, human KDELR1 (Homo sapiens, UniProt P24390); experiment: ER retrieval assay, WT KDELR1-GFP; assay type: cell-based; settings: COS-7 cells, WT human KDEL receptor-GFP with mScarlet ligand
T1 construct: expressed in transfected cells; host or cells: COS-7
From the text: (§1) To create KDELR1-GFP and KDELR2-GFP, the reading frames for Homo sapiens KDELR1 (Uniprot: P24390) and KDELR2 (Uniprot: P33947) were cloned into the pEF5/FRT low level mammalian expression vector with a C-terminal 20 amino acid linker made up of 5 copies of Gly-Ser-Ser-Ser followed by GFP. Specific point mutations were introduced using the Quickchange protocol (Stratagene) and are described in the key resources table and figures. To create the mScarlet-KDEL^sec ligand construct, mScarlet with an N-terminal hGH signal peptide and the 16 C-terminal residues of human BiP at its C-terminus, containing the KDEL signal, was cloned into the pcDNA3.1 vector. […] The Golgi marker protein TGN46 was detected by antibody (sheep anti-TGN46 AHP500G; AbD Serotec) and an Alexa 647 conjugated secondary anti-sheep secondary (A-21448, Invitrogen). In Figure 1d and e, endogenous KDELR was detected by antibody (mouse anti-KDELR ADI-VAA-PT048; Enzo Life Sciences) and Alexa 488 conjugated anti-mouse secondary antibody (A-21202, Invitrogen). For retrieval assays in other figures, KDELR-GFP fusion proteins were directly detected by fluorescence. The mScarlet-xDEL fusion proteins were directly detected by fluorescence. […] The fraction of KDEL receptor in the Golgi apparatus was calculated by dividing the Golgi signal by the total cell signal. […]

human KDELR1 D50N/N54K = molecular target: T2, human KDELR1 D50N/N54K (Homo sapiens, UniProt P24390, D50N/N54K); experiment: ER retrieval assay, KDELR1 D50N/N54K-GFP; assay type: cell-based; settings: COS-7 cells
T2 construct: expressed in transfected cells; host or cells: COS-7
From the text: as §1

T2 sequence (P24390 whole entry D50N/N54K): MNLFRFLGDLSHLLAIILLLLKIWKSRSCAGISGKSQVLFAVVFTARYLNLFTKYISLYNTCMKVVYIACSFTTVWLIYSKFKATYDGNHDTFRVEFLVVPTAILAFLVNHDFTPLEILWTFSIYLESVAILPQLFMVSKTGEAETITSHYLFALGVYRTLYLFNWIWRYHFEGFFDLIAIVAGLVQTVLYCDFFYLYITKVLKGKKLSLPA
T1 sequence (P24390 whole entry): as the sequence (P24390 whole entry D50N/N54K) above, with N50D, K54N counted along it

ligand-induced receptor retrieval to the ER (in words) (human KDELR1): does not activate
ligand-induced receptor retrieval to the ER (in words) (human KDELR1 D50N/N54K): gave a response
Substance: ADEL [pcDNA3.1 hGHss-mScarlet-H. sapiens BiP639-654K651A (ADEL^SEC), secreted mScarlet fusion with human BiP C-terminus, ADEL signal]
